ChEMBL document CHEMBL1201862, “PubChem BioAssay data set” (2004)
Activity calls are given as the source filed them.

Tests used:
[1] = test system: Streptococcus sp. 'group A'; assay: growth inhibition of control SK(-) GAS strain, dose response, counter-screen for streptokinase expression inhibitor project, luminescence, kanamycin, BacTiterGlo, confirmation (AID 1900); format: functional, organism-based
Streptococcus = assay: Group A Streptococcus viability loss, dose response, counter-screen for streptokinase expression inhibitor project, luminescence, BacTiterGlo (AID 1915); format: functional, organism-based;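 note: potency for reduction of bacterial viability or growth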
[2] = Luminescence Cell-Based Dose Retest to Confirm Inhibitors of Cancer Stem Cells. [Related pubchem assays (depositor defined):AID2717, AID2721]; format: functional; settings: Homo sapiens
[3] = target: T1, Replicative DNA helicase DnaB (Mycobacterium tuberculosis, UniProt P9WMR3); assay: DnaB intein splicing inhibitors, dose response, biochemical, cell-free fluorescence (AID 449749); format: functional
T1 sequence (P9WMR3 whole entry): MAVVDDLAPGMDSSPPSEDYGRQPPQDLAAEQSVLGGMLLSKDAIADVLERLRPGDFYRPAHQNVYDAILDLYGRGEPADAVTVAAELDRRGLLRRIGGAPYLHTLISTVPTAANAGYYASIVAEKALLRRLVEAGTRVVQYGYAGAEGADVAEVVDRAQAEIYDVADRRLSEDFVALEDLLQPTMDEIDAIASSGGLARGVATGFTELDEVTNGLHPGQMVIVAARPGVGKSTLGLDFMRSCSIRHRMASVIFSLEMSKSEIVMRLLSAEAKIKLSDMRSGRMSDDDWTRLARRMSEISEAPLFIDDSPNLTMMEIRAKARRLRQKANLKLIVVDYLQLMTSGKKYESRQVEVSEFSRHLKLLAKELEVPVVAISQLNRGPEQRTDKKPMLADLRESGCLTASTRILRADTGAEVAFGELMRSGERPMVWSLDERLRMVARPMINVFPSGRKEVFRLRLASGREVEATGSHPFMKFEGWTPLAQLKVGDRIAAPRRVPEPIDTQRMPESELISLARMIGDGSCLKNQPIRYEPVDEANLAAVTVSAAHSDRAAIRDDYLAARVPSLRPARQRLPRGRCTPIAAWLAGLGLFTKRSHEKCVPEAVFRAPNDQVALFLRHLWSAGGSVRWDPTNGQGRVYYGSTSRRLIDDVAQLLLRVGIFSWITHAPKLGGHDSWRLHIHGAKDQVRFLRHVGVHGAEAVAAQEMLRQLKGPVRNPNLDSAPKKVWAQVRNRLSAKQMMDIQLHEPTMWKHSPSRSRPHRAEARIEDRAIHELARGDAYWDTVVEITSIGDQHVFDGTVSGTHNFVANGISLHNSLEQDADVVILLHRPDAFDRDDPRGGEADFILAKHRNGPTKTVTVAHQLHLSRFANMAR

Protein RecA = target: T2, Protein RecA (Mycobacterium tuberculosis, UniProt P9WHJ3); assay: Fluorescence Cell-Free Homogeneous Dose Retest to Identify Inhibitors of RecA-Intein Splicing Activity. [Related pubchem assays (depositor defined):AID2097, AID2223, AID489010, AID492950]; format: functional
T2 sequence (P9WHJ3 whole entry): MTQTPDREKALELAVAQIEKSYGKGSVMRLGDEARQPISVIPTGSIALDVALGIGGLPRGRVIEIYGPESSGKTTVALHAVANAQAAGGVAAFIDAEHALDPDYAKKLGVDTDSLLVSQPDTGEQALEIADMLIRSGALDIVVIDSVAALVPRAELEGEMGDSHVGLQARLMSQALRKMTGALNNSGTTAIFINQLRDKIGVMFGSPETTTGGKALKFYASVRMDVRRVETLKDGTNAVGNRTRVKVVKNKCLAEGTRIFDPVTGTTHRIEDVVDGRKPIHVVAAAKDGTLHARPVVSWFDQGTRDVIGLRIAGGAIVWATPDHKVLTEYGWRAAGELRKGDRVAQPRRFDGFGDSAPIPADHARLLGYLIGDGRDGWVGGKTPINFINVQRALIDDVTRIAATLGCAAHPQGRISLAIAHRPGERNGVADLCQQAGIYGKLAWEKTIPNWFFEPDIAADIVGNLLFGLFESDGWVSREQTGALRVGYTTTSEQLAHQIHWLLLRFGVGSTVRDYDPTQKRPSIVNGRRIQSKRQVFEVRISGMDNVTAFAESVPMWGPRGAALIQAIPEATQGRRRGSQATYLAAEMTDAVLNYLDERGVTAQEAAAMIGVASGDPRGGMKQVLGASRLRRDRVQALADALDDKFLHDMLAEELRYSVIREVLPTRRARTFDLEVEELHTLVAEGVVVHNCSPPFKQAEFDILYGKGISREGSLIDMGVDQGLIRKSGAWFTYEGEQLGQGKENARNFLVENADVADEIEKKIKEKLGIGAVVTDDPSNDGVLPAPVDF

Cytochrome P450 3A4 = Cytochrome P450 3A4 (Homo sapiens, UniProt P08684);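 note: CYP3A4 tested as one member of a cytochrome P450 panel screen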
[4] = target: T3, Heat shock factor protein 1 (Mus musculus, UniProt P38532); assay: inhibition of MG132-induced HSE-luciferase signal, confirmation, cell-based, NIH3T3, luminescence, dose retest (AID 2382); format: functional;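 note: NIH3T3 fibroblasts with HSF1-driven luciferase reporter stressed by proteasome inhibitor MG132; luminescence from HSF1-driven luciferase expression after 8 hours of MG132 stress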
T3 sequence (P38532 whole entry): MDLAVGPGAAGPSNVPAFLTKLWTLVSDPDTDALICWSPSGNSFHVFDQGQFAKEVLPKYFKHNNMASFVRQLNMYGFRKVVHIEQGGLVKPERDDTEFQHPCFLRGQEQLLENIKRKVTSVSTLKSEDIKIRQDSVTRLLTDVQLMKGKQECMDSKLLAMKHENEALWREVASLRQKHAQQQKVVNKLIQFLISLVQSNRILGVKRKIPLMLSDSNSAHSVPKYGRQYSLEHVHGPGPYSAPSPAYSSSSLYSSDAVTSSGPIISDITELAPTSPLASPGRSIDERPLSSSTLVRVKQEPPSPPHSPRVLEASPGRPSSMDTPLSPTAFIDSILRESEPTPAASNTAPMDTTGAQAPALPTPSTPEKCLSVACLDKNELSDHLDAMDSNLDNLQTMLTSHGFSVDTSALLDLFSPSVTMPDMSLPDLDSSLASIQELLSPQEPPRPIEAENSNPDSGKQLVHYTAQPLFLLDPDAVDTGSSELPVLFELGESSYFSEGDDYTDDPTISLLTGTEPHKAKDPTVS

Cytochrome P450 2D6 = Cytochrome P450 2D6 (Homo sapiens, UniProt P10635);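 note: CYP2D6 member of a cytochrome P450 panel assay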
[5] = target: T4, Corticotropin-releasing factor receptor 2/Corticotropin-releasing factor-binding protein (Homo sapiens, UniProt P24387+Q13324); assay: activators of CRF receptor 2 with binding protein – uHTS hits, confirmation (AID 602473); format: functional; settings: read-out: EC50_Mean
T4 sequence (Q13324 whole entry): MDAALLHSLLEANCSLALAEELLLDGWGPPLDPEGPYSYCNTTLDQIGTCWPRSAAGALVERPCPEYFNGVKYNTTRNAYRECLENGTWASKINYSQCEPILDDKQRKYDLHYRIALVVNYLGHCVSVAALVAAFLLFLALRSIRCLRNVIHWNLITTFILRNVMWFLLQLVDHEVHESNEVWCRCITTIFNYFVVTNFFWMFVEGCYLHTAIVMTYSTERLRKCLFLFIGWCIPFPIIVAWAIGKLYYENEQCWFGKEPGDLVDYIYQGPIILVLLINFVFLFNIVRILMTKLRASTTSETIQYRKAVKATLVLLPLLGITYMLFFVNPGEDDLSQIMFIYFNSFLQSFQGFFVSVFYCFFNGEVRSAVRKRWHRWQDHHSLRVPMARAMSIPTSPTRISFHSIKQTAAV
T4 sequence (P24387 whole entry): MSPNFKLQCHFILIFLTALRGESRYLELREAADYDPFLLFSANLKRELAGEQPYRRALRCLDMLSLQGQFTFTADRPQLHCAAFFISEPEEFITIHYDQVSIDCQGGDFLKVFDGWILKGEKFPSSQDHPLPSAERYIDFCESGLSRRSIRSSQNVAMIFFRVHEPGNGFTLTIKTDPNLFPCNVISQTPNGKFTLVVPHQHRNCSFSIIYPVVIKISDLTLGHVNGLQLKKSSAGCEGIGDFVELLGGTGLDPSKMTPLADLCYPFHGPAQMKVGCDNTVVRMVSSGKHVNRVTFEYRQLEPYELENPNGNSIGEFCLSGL

[6] = inhibitors of intracellular T. cruzi replication, confirmation, NIH3T3 host cells, beta-gal luminescence (AID 2044); format: functional, cell-based;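 note: intracellular parasites grown in NIH/3T3 mouse fibroblasts as host cells; luminescent beta-galactosidase reporter signal from transgenic T. cruzi replicating inside host cells; inhibitors lower the luminescence signal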
[7] = cytotoxicity toward NIH3T3 fibroblasts, dose response, counter-screen, cell-based, ATP luminescence, mouse fibroblasts (AID 2010); format: functional;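 note: cells exposed to compound for about 90 hours before reading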

Cytochrome P450 3A4, sequence (P08684 whole entry): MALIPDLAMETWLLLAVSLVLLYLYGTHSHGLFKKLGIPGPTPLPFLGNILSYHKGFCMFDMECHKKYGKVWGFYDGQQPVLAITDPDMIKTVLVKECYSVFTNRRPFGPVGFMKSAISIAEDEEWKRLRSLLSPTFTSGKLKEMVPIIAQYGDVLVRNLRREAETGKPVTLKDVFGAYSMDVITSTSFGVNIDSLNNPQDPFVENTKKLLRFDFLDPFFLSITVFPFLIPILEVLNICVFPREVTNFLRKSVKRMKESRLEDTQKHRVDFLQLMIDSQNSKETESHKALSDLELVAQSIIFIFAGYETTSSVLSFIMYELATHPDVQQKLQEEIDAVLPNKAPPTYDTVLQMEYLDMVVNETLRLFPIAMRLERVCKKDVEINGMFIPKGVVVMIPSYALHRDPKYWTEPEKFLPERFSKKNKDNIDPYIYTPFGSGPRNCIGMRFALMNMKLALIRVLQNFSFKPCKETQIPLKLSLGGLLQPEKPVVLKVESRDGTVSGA
Cytochrome P450 2D6, sequence (P10635 whole entry): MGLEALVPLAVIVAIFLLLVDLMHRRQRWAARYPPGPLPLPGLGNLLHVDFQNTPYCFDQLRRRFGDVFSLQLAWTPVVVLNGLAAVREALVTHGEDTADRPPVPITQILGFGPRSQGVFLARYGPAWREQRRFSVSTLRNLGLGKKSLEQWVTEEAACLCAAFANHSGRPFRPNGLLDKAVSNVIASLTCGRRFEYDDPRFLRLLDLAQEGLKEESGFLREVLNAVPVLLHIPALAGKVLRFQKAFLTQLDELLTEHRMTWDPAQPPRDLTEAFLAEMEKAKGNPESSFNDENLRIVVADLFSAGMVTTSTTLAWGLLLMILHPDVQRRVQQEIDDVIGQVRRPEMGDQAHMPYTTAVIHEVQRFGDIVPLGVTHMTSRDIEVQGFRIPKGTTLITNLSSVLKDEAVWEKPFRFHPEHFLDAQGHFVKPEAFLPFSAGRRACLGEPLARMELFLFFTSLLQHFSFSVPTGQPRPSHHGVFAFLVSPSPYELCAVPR

Compound: CCCC1CC(C(=O)NC(C(C)Cl)C2OC(SC)C(O)C(O)C2O)N(C)C1 (centres undefined)
- EC50 [1]: < 0.06 µM (active)
- EC50 (Streptococcus): < 0.06 µM (active)

Compound: FC(F)Oc1ccc(-c2csc(NNC3=NCCCCC3)n2)cc1
- AC50 [2]: 1.77 µM (active)

Compound: O=C1CC/[N+](=C\c2ccccc2)[N-]1
- AC50 [3]: 19.4 µM (active)
- EC50 (Protein RecA): 4.58 µM (active)

Compound: COc1ccc(NC(=S)N(CCc2nc3cc(C)c(C)cc3[nH]2)Cc2cccnc2)cc1
- AC50 (Cytochrome P450 3A4): 0.891 µM (inconclusive)

Compound: CC(C)(C)c1ccc(C(=O)NC(=S)Nc2nc3c(s2)CCCC3)cc1
- EC50 [4]: 0.192 µM (active)
- AC50 [2]: 2.02 µM (active)

Compound: CCn1c(=O)c(C(=O)NCCc2ccccc2)c(O)c2ccccc21
- AC50 [2]: 6.91 µM (active)

Compound: COc1ccc(NC(=O)c2ccc(COc3ccccc3Br)o2)cc1OC
- AC50 [2]: 1.69 µM (active)

Compound: Cc1cccc(C(=O)OCC(=O)Nc2nnc(-c3ccccc3)o2)c1O
- EC50 [1]: 3.11 µM (active)
- EC50 (Streptococcus): 4.74 µM (active)

Compound: CC(C)CN1CCCC2(CCN(C(=O)Oc3ccccc3)CC2)C1
- AC50 (Cytochrome P450 2D6): 20 µM (inconclusive)
- AC50 (Cytochrome P450 3A4): 25.1 µM (inconclusive)

Compound: COC(=O)Cc1n[nH]c2c1C(c1c[nH]c3ccccc13)C(C#N)=C(N)O2 (centres undefined)
- AC50 [3]: > 380 µM (inactive)
- EC50 (Protein RecA): > 380 µM (inconclusive)

Compound: O=C1c2cc(Br)ccc2N(Cc2ccc(Br)cc2)S(=O)(=O)C1c1cc(Cl)c(Cl)cc1[N+](=O)[O-] (centres undefined)
- AC50 [2]: 1.06 µM (active)

Compound: CCNc1ncc2nc(-c3cn(C)c4ccccc34)c(=O)n(CCC#N)c2n1
- AC50 (Cytochrome P450 3A4): 12.6 µM (inconclusive)

Compound: CC1(c2ccc(OC(F)F)cc2)NC(=O)N(CC(=O)Nc2cccc(F)c2)C1=O (centres undefined)
- EC50 [5]: 4.52 µM (active)

Compound: CCOC(=O)c1nnn(-c2nonc2-n2cccc2)c1CCl
- AC50 [3]: 5.35 µM (active)
- EC50 (Protein RecA): 1.42 µM (active)

Compound: CC(=O)OCC1=C(C(=O)O)N2C(=O)C(NC(=O)C(C)Cn3cc(Cl)cn3)C2SC1 (centres undefined)
- EC50 [1]: 1.39 µM (active)
- EC50 (Streptococcus): 1.27 µM (active)

Compound: O=S(=O)(NC1CC(NS(=O)(=O)OCC(Cl)(Cl)Cl)C2CCCCC12)OCC(Cl)(Cl)Cl (centres undefined)
- AC50 [2]: 1.31 µM (active)

Compound: Cn1cc(-c2nc3cncnc3n(C3CC3)c2=O)c2ccccc21
- AC50 (Cytochrome P450 3A4): 7.94 µM (inconclusive)

Compound: O=[N+]([O-])c1cc(Cl)cc2c1nc(NCCO)c1ccccc12
- AC50 (Cytochrome P450 3A4): 3.16 µM (inconclusive)

Compound: Cc1nc2cnc(OCc3ccccc3)nc2n(CCc2ccccc2)c1=O
- AC50 (Cytochrome P450 3A4): 25.1 µM (inconclusive)

Compound: Cc1ccccc1CS(=O)(=O)c1snnc1C
- AC50 [3]: > 380 µM (inactive)
- EC50 (Protein RecA): > 380 µM (inactive)

Compound: Cc1ccc(NC(=O)C2C3CCCC2C3c2ccccc2)cc1C (centres undefined)
- AC50 (Cytochrome P450 3A4): 8.91 µM (inconclusive)

Compound: COC(=O)c1c(-c2ccc(OC)cc2)oc2ccc(-c3cc(OC)c(OC)c(OC)c3)cc12
- AC50 [2]: 5.85 µM (active)

Compound: Fc1cccc(C2NC(S)=NC3=C2N2CCC3CC2)c1 (centres undefined)
- AC50 (Cytochrome P450 2D6): 3.16 µM (inconclusive)
- AC50 (Cytochrome P450 3A4): 25.1 µM (inconclusive)

Compound: Cc1[nH]c2ccc(F)cc2c1CCN(Cc1cccnc1)C(S)=Nc1ccc(F)cc1
- EC50 [6]: 0.705 µM (active)
- EC50 [7]: > 30 µM (not active)
- AC50 [3]: 17.2 µM (active)
- EC50 (Protein RecA): 93.4 µM (active)

Compound: O=c1[nH]cc(NCCc2ccccc2)c(=O)[nH]1
- AC50 [3]: > 380 µM (inconclusive)
- EC50 (Protein RecA): 10.1 µM (active)

Compound: CCCCOc1ccc(C2C3CN(C(=O)OCC)CC=C3C(C#N)=C(N)C2(C#N)C#N)cc1OC (centres undefined)
- AC50 [3]: > 380 µM (inactive)
- EC50 (Protein RecA): 29.8 µM (active)

Compound: C/C=C(/C)C(=O)OC1CC(C)(C)C[C@H]2C3=CC[C@@H]4[C@@]5(C)CCC(O[C@@H]6O[C@@H](C(=O)O)[C@@H](O)C(O[C@@H]7OC[C@H](O)[C@@H](O)[C@@H]7O[C@@H]7OC(CO)C(O)[C@@H](O)[C@@H]7O)C6O[C@@H]6OC(CO)C(O)C(O)C6O)[C@@](C)(CO)[C@@H]5CC[C@]4(C)[C@]3(C)CC(O)[C@@]12CO (some centres undefined)
- EC50 [5]: 5.49 µM (active)

Compound: CCOC(=O)Cn1cc(/C=N/NC(=O)CC#N)c2ccccc21
- AC50 [3]: 61.1 µM (active)
- EC50 (Protein RecA): 6.38 µM (active)
